In patent US7737250B2, “Peptides for treating axonal damage, inhibition of neurotransmitter release and pain transmission, and blocking calcium influx in neurons” (Mount Sinai School of Medicine of New York University, priority 2003, dated 2010):

Key:
Cav2.2 current = assay: Whole-cell calcium current recording in DRG neurons; type: cell-based, chick; conditions: 1.4 ng/ml peptide in recording pipette; after 2 minutes of recording
Method: Electrophysiology: Standard tight seal, whole-cell recording methods [Hamill et al.,1981 Pflugers Arch. 381, 85-10] were employed. Cells were incubated in an external solution containing 133 mM NaCl, 1 mM CaCl2, 0.8 mM MgCl2, 25 mM HEPES, 12.5 mM NaOH, 5mM glucose, 10 mM tetraethylammonium chloride, […] (pH 7.4). Experiments were performed on the stage of an inverted microscope. Recording pipettes were fabricated from microhemnatocrit tubing (Fisher) and filled with an internal recording solution containing 150 mM CsCl, 5 BAPTA, 5 MgATP, 10 HEPES (pH 7.2). All salts were obtained from Fluka. Initial pipette resistances were 0.8-1.2 MΩ. […]
Electrophysiology Data Analysis—Data was filtered at 3 kHz, acquired at 10-20 kHz and analyzed using PulseFit (HEKA) and IgorPro (WaveMetrics) on a Macintosh G3 computer. […] Such conditioning pulses have no effect on control currents recorded in the absence of GABA. During the application of the transmitter, test pulse currents measured before and after the conditioning pulse are subtracted to yield the voltage-dependent component. Test pulses measured following the conditioning pulse are subtracted from control currents (measured in the absence of GABA) to yield the voltage-independent component.

[1] = test system: secretion of Substance P from DRG neurons; assay: Substance P secretion, single-cell immunoblot assay; type: cell-based, chick; conditions: DRG neurons pre-incubated with peptide 1.4 μg/ml for 1 hour
Method: Secretion Assay: Secretion of substance P was analyzed using the single-cell immunoblot method adapted from Huang and Neher (Huang, L. Y., Neher, E. (1996) Neuron. 17, 135-45.). Briefly, polyvinylidene difluoride transfer membranes (Immobilon P brand from Millipore) were cut to […] and placed in a 6-well plate. Membranes were pre-wetted with methanol for 20 s, rinsed with distilled water and allowed to equilibrate in test solution for >1 hr. In parallel, DRG cells plated were incubated with media containing AP-YF or AP-Scr (1.4 μg/ml) for 1 hour. This media was removed, and replaced with 70 μl of test solution. The membranes were then placed on top of the cells, and allowed to incubate at 37° C. in a humidified CO2 incubator for 30 min. The membranes were then carefully removed from the cells and allowed to dry completely and fixed with powdered paraformaldehyde at 80° C. for 1 hr. Fixed membranes were rinsed in PBS (1 mM KH2PO4, 10 mM Na2HPO4, 137 mM NaCl, 2.7 mM KCl) containing 1% Triton X-100 (PBS-T) to remove excess paraformaldehyde, and blocked with PBS-T containing 3% fetal bovine serum (FBS) for 30 min at room temperature. The membranes were incubated with anti-substance P antibody (Santa Cruz) at 1:200 dilution in PBS-T with 1% FBS overnight in 37° C. incubator. The next day the membranes were developed with a peroxidase/diamninobenzidine (DAB) reaction using the ABC staining kit from Santa Cruz Biotechnology. Images were taken using a CCD camera, and analyzed using Photoshop and NIH image software. Data were plotted by assigning an upper and lower limit of gray values and plotting % of cells at a range within those limits. By plotting graphs as % of cells in a dynamic range, multiple experimental runs were pooled.

RQIKIWFQNRRMKWKKFQGIFSGDENFQ [AP-Scramble]
inhibition of calcium current (Cav2.2 current): no significant effect
high K^+-induced secretion of Substance P [1]: did not affect secretion significantly

RQIKIWFQNRRMKWKKQFNEDGSFIGQF [AP-YF]
inhibition of calcium current (Cav2.2 current): 83+17%
high K^+-induced secretion of Substance P [1]: blocks high K^+-induced secretion
